# PubChem BioAssay (NCI)
#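 Compound exposure: 48 hours, 5 concentrations, 96-well plates. At the TGI there is no net growth.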 Where a SMILES comes first, the peptide text is derived from it. The star is where a group is joined. Cbz = O=C(OCc1ccccc1)*
# Test system: MDA-MB-435
# Experiment: NCI tumour cell line growth inhibition, 48 h
row,Compound,TGI
1,Cc1cc2oc(=N)c(C#N)c(C)c2cc1C,> 100 µM
2,CN(C)CCCC12CCCCC1=Nc1ccccc12 (configuration not stated),> 100 µM
3,CCOC(=O)CC[C@H](NC(=O)[C@H](N)Cc1ccc(N(CCCl)CCCl)cc1)C(=O)OCC,> 53.1 µM
4,CN=C(N=Nc1c(O)[nH]c2ccccc12)SCC(=O)c1ccc(Br)cc1,> 42.3 µM
5,O=C1CCCC1CN1CCCC1 (configuration not stated),26.3 µM
6,Nc1nc(N)c2c3c(cnc2n1)CC(c1ccccc1)CC3 (configuration not stated),> 100 µM
7,N#Cc1c(N)nc2n[nH]c(N)c2c1-c1ccc(Cl)cc1,> 74.4 µM
8,COc1cc(NS(C)(=O)=O)ccc1Nc1c2ccccc2nc2c1[nH]c1ccc(NC3OC(CO)C(O)C(O)C3O)cc12 (configuration not stated),7.06 µM
9,COC(=O)C1=C(C(=O)NNc2ccccc2)N(c2cccnc2Cl)C(c2ccccc2)=CC1c1ccccc1 (configuration not stated),> 100 µM
10,O=C(O)CCC(NC(=O)OCc1ccccc1)C(=O)NC(Cc1cnc[nH]1)C(=O)O (stereo not drawn) (Cbz-Glu-His-OH; configuration not given here),> 100 µM
11,CCOC(=O)c1nnc2c(C(=O)OCC)c3ccccc3n2c1N,> 100 µM
12,Clc1ccc(C2C3COc4ccccc4C3=NN2c2ccccc2)cc1 (configuration not stated),> 100 µM
13,CC12CC(c3ccccc3O1)C(C(=O)Nc1ccc(Cl)cc1Cl)C(=O)N2 (configuration not stated),> 100 µM
14,NC(=O)C(C(N)=O)=C(O)C(=O)/C=C(\O)c1ccccc1,> 100 µM
15,COC(=O)C1=C(O)C(C(=O)OC)[C@]2(O)[C@H](C(=O)OC)[C@H]1C[C@@H](c1ccc(C(F)(F)F)cc1)[C@H]2C(=O)OC (some centres not stated),> 100 µM
16,CCOC(=O)C12OC(CCC1=O)C(C(=O)OC)=C2C(=O)OC (configuration not stated),> 10 µM
17,NNC(=O)c1n[nH]nc1C(=O)NN,> 100 µM
18,CCOC(=O)NC(Nc1ccc(S(=O)(=O)Nc2nc(C)cc(C)n2)cc1)(C(=O)OCC)C(F)(F)F (configuration not stated),> 100 µM
19,CN1CCN(C(=S)N2CCN(C)CC2)CC1,> 100 µM
20,Nc1nc(SC/C=C/c2ccccc2)c2[nH]cnc2n1,> 100 µM
21,CC(=O)c1c(C)n([O-])c2cc(Cl)c(Cl)cc2[n+]1=O,69.7 µM
22,O=c1c(/C=C/c2c(O)ccc3ccccc23)nnc2sc(-c3cccc(Br)c3)nn12,> 100 µM
23,C/C=C(/C)C(=O)O[C@@H]1CCN2CC[C@H](COC(=O)/C(=C/C)CO)C12 (some centres not stated),> 100 µM

# Test system: HL-60(TB) leukemia
# Experiment: NCI tumour cell line growth inhibition, 48 h
row,Compound,TGI
1,Cc1cc2oc(=N)c(C#N)c(C)c2cc1C,> 100 µM
2,CN(C)CCCC12CCCCC1=Nc1ccccc12 (configuration not stated),76.3 µM
3,CCOC(=O)CC[C@H](NC(=O)[C@H](N)Cc1ccc(N(CCCl)CCCl)cc1)C(=O)OCC,36.6 µM
4,CN=C(N=Nc1c(O)[nH]c2ccccc12)SCC(=O)c1ccc(Br)cc1,> 100 µM
5,O=C1CCCC1CN1CCCC1 (configuration not stated),3.02 µM
6,Nc1nc(N)c2c3c(cnc2n1)CC(c1ccccc1)CC3 (configuration not stated),24.8 µM
7,N#Cc1c(N)nc2n[nH]c(N)c2c1-c1ccc(Cl)cc1,> 100 µM
8,COc1cc(NS(C)(=O)=O)ccc1Nc1c2ccccc2nc2c1[nH]c1ccc(NC3OC(CO)C(O)C(O)C3O)cc12 (configuration not stated),0.282 µM
9,COC(=O)C1=C(C(=O)NNc2ccccc2)N(c2cccnc2Cl)C(c2ccccc2)=CC1c1ccccc1 (configuration not stated),> 100 µM
10,O=C(O)CCC(NC(=O)OCc1ccccc1)C(=O)NC(Cc1cnc[nH]1)C(=O)O (stereo not drawn) (Cbz-Glu-His-OH; configuration not given here),> 100 µM
11,CCOC(=O)c1nnc2c(C(=O)OCC)c3ccccc3n2c1N,5.52 µM
12,Clc1ccc(C2C3COc4ccccc4C3=NN2c2ccccc2)cc1 (configuration not stated),> 68.2 µM
13,CC12CC(c3ccccc3O1)C(C(=O)Nc1ccc(Cl)cc1Cl)C(=O)N2 (configuration not stated),21.2 µM
14,NC(=O)C(C(N)=O)=C(O)C(=O)/C=C(\O)c1ccccc1,58.8 µM
15,COC(=O)C1=C(O)C(C(=O)OC)[C@]2(O)[C@H](C(=O)OC)[C@H]1C[C@@H](c1ccc(C(F)(F)F)cc1)[C@H]2C(=O)OC (some centres not stated),30.2 µM
16,CCOC(=O)C12OC(CCC1=O)C(C(=O)OC)=C2C(=O)OC (configuration not stated),> 10 µM
17,NNC(=O)c1n[nH]nc1C(=O)NN,> 100 µM
18,CCOC(=O)NC(Nc1ccc(S(=O)(=O)Nc2nc(C)cc(C)n2)cc1)(C(=O)OCC)C(F)(F)F (configuration not stated),> 100 µM
19,CN1CCN(C(=S)N2CCN(C)CC2)CC1,> 100 µM
20,Nc1nc(SC/C=C/c2ccccc2)c2[nH]cnc2n1,> 100 µM
21,CC(=O)c1c(C)n([O-])c2cc(Cl)c(Cl)cc2[n+]1=O,39.6 µM
22,O=c1c(/C=C/c2c(O)ccc3ccccc23)nnc2sc(-c3cccc(Br)c3)nn12,26.6 µM
23,C/C=C(/C)C(=O)O[C@@H]1CCN2CC[C@H](COC(=O)/C(=C/C)CO)C12 (some centres not stated),> 100 µM

# Test system: OVCAR-8 ovarian
# Experiment: NCI tumour cell line growth inhibition, 48 h
row,Compound,TGI
1,Cc1cc2oc(=N)c(C#N)c(C)c2cc1C,> 100 µM
2,CN(C)CCCC12CCCCC1=Nc1ccccc12 (configuration not stated),> 100 µM
3,CCOC(=O)CC[C@H](NC(=O)[C@H](N)Cc1ccc(N(CCCl)CCCl)cc1)C(=O)OCC,> 52.8 µM
4,CN=C(N=Nc1c(O)[nH]c2ccccc12)SCC(=O)c1ccc(Br)cc1,> 40.7 µM
5,O=C1CCCC1CN1CCCC1 (configuration not stated),35.4 µM
6,Nc1nc(N)c2c3c(cnc2n1)CC(c1ccccc1)CC3 (configuration not stated),26.6 µM
7,N#Cc1c(N)nc2n[nH]c(N)c2c1-c1ccc(Cl)cc1,> 50.8 µM
8,COc1cc(NS(C)(=O)=O)ccc1Nc1c2ccccc2nc2c1[nH]c1ccc(NC3OC(CO)C(O)C(O)C3O)cc12 (configuration not stated),0.95 µM
9,COC(=O)C1=C(C(=O)NNc2ccccc2)N(c2cccnc2Cl)C(c2ccccc2)=CC1c1ccccc1 (configuration not stated),> 100 µM
10,O=C(O)CCC(NC(=O)OCc1ccccc1)C(=O)NC(Cc1cnc[nH]1)C(=O)O (stereo not drawn) (Cbz-Glu-His-OH; configuration not given here),> 100 µM
11,CCOC(=O)c1nnc2c(C(=O)OCC)c3ccccc3n2c1N,> 100 µM
12,Clc1ccc(C2C3COc4ccccc4C3=NN2c2ccccc2)cc1 (configuration not stated),> 100 µM
13,CC12CC(c3ccccc3O1)C(C(=O)Nc1ccc(Cl)cc1Cl)C(=O)N2 (configuration not stated),30.6 µM
14,NC(=O)C(C(N)=O)=C(O)C(=O)/C=C(\O)c1ccccc1,> 100 µM
15,COC(=O)C1=C(O)C(C(=O)OC)[C@]2(O)[C@H](C(=O)OC)[C@H]1C[C@@H](c1ccc(C(F)(F)F)cc1)[C@H]2C(=O)OC (some centres not stated),> 100 µM
16,CCOC(=O)C12OC(CCC1=O)C(C(=O)OC)=C2C(=O)OC (configuration not stated),> 10 µM
17,NNC(=O)c1n[nH]nc1C(=O)NN,> 100 µM
18,CCOC(=O)NC(Nc1ccc(S(=O)(=O)Nc2nc(C)cc(C)n2)cc1)(C(=O)OCC)C(F)(F)F (configuration not stated),> 100 µM
19,CN1CCN(C(=S)N2CCN(C)CC2)CC1,> 100 µM
20,Nc1nc(SC/C=C/c2ccccc2)c2[nH]cnc2n1,> 100 µM
21,CC(=O)c1c(C)n([O-])c2cc(Cl)c(Cl)cc2[n+]1=O,89.9 µM
22,O=c1c(/C=C/c2c(O)ccc3ccccc23)nnc2sc(-c3cccc(Br)c3)nn12,23.6 µM
23,C/C=C(/C)C(=O)O[C@@H]1CCN2CC[C@H](COC(=O)/C(=C/C)CO)C12 (some centres not stated),> 100 µM

# Test system: U251 CNS
# Experiment: NCI tumour cell line growth inhibition, 48 h
row,Compound,TGI
1,Cc1cc2oc(=N)c(C#N)c(C)c2cc1C,> 100 µM
2,CN(C)CCCC12CCCCC1=Nc1ccccc12 (configuration not stated),> 100 µM
3,CCOC(=O)CC[C@H](NC(=O)[C@H](N)Cc1ccc(N(CCCl)CCCl)cc1)C(=O)OCC,> 59.2 µM
4,CN=C(N=Nc1c(O)[nH]c2ccccc12)SCC(=O)c1ccc(Br)cc1,16.6 µM
5,O=C1CCCC1CN1CCCC1 (configuration not stated),> 56.8 µM
6,Nc1nc(N)c2c3c(cnc2n1)CC(c1ccccc1)CC3 (configuration not stated),> 100 µM
7,N#Cc1c(N)nc2n[nH]c(N)c2c1-c1ccc(Cl)cc1,> 55 µM
8,COc1cc(NS(C)(=O)=O)ccc1Nc1c2ccccc2nc2c1[nH]c1ccc(NC3OC(CO)C(O)C(O)C3O)cc12 (configuration not stated),0.332 µM
9,COC(=O)C1=C(C(=O)NNc2ccccc2)N(c2cccnc2Cl)C(c2ccccc2)=CC1c1ccccc1 (configuration not stated),> 100 µM
10,O=C(O)CCC(NC(=O)OCc1ccccc1)C(=O)NC(Cc1cnc[nH]1)C(=O)O (stereo not drawn) (Cbz-Glu-His-OH; configuration not given here),> 100 µM
11,CCOC(=O)c1nnc2c(C(=O)OCC)c3ccccc3n2c1N,> 100 µM
12,Clc1ccc(C2C3COc4ccccc4C3=NN2c2ccccc2)cc1 (configuration not stated),> 100 µM
13,CC12CC(c3ccccc3O1)C(C(=O)Nc1ccc(Cl)cc1Cl)C(=O)N2 (configuration not stated),48.2 µM
14,NC(=O)C(C(N)=O)=C(O)C(=O)/C=C(\O)c1ccccc1,> 100 µM
15,COC(=O)C1=C(O)C(C(=O)OC)[C@]2(O)[C@H](C(=O)OC)[C@H]1C[C@@H](c1ccc(C(F)(F)F)cc1)[C@H]2C(=O)OC (some centres not stated),14.9 µM
16,CCOC(=O)C12OC(CCC1=O)C(C(=O)OC)=C2C(=O)OC (configuration not stated),> 10 µM
17,NNC(=O)c1n[nH]nc1C(=O)NN,> 100 µM
18,CCOC(=O)NC(Nc1ccc(S(=O)(=O)Nc2nc(C)cc(C)n2)cc1)(C(=O)OCC)C(F)(F)F (configuration not stated),> 100 µM
19,CN1CCN(C(=S)N2CCN(C)CC2)CC1,> 100 µM
20,Nc1nc(SC/C=C/c2ccccc2)c2[nH]cnc2n1,> 100 µM
21,CC(=O)c1c(C)n([O-])c2cc(Cl)c(Cl)cc2[n+]1=O,> 100 µM
22,O=c1c(/C=C/c2c(O)ccc3ccccc23)nnc2sc(-c3cccc(Br)c3)nn12,> 100 µM
23,C/C=C(/C)C(=O)O[C@@H]1CCN2CC[C@H](COC(=O)/C(=C/C)CO)C12 (some centres not stated),> 100 µM
